# Data reported in patent US7803792B2, “Quaternary ammonium compounds” (Asahi Kasei Pharma Corporation, priority 2002, dated 2010).
# Experiments:
# [1] = system: Cholic acid-loaded rat model; experiment: Bile acid-decreasing effect in portal vein of rats loaded with cholic acid (Test Example 2); assay type: in vivo; conditions: portal vein blood after 2 hours
# Experimental: Bile Acid-Decreasing Effect in Portal Vein of Rats Loaded With Cholic Acid
# In this test example, the test for confirming the bile acid-decreasing effect in portal vein of cholic acid-loaded rats was carried out according to the method described in Pharmacology and Therapeutics [Jpn Pharmacol. Ther., Vol. 24 Supplement, 1996, 103 (S-577)-110 (S-584)].
# That is, 7 to 9 weeks old SD (IGS) rats were starved on the day before the test and thereafter. […] After 2 hours from the administration, a sample of blood was taken from a portal vein and total serum bile acid level was measured to study the effect of the test compound (n=6). Further, as a control group, a group (n=6) loaded with cholic acid (200 mg/kg) only was prepared and the same test procedure was followed. A commercially available kit (trade name: SOTANJUSAN-TEST WAKO-(SOTANJUSAN=total bile acid), manufactured by WAKO PURE CHEMICAL […], LTD.) was used for the measurement of bile acid. Assuming the value of the control group, which is a group in which no test compound was used, as 100%, the rate of decrease (percentage (%) of decrease) of the bile acid level when a fixed amount of the test compound was used was determined.
# [2] = molecular target: T1, human IBAT (Homo sapiens, UniProt Q12908); experiment: In vitro assay of temporarily expressed human IBAT transporter using Cos 7 cells (Test Example 8); assay type: cell-based; conditions: Cos 7 cells temporarily expressing human IBAT; [3H] taurocholate 8 μM, 37° C., 60 minutes
# T1 construct: expressed in transfected cells; host or cells: Cos 7
# T1 sequence (Q12908 1-348): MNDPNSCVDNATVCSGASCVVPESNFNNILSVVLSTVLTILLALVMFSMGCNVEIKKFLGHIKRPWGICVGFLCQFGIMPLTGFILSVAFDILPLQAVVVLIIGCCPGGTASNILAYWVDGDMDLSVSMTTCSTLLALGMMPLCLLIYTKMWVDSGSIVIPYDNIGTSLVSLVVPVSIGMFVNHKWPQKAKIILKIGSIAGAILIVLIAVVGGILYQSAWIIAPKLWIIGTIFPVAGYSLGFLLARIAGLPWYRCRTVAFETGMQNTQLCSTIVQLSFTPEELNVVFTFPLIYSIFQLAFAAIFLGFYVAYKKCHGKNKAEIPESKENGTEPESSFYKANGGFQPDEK
# Experimental: In Vitro Assay of Compounds Which Inhibit Temporarily Expressed Human IBAT Transporter or Rat IBAT Transporter Using Cos 7 Cells
# In this test example, the in vitro assay of the compounds which inhibit temporarily expressed human IBAT transporter or rat IBAT transporter using Cos cells was carried out according to the method described in Am. J. Physiol., 274, G157-169.
# That is, […] Cos 7 were inoculated on a 24-well cell plate. One day later, 0.3 μg per well of cDNA of a human IBAT or a rat IBAT was transfected by using FuGENE6 (manufactured by ROCHE PHARMACEUTICAL CO., LTD.). For the assay, the cells cultured for one day after the transfection were used and the following procedure was followed. The cells were washed once with an assay buffer, Hank's buffer solution containing 25 mM glucose and with 10 mM HEPES (pH 7.4), and then the assay buffer was replaced by an assay buffer to which the test compound was added. After adding [^3H] taurocholate to a final concentration of 8 μM, the cells were incubated at 37° C. for 60 minutes. [^3H] taurocholate was allowed to be incorporated in Cos 7 cells through human IBAT or rat IBAT. The reaction was stopped by washing twice with a buffer prepared by adding 1 mM taurocholate to the assay buffer and lyzing the cells with 0.2M NaOH. Measurement of radioactivity was carried out by introducing the cell lyzate in 4 ml of liquid scintillation cocktail, stirring the mixture well, and then measuring the radioactivity by a scintillation counter.
# [3] = system: Caco 2 cells; experiment: Toxicity with respect to alimentary canal: cytotoxicity to Caco 2, LDH activity (Test Example 12); assay type: cell-based, human; conditions: LDH activity after 2 hours, relative to cytolytic agent = 100%
# Experimental: Toxicity With Respect to Alimentary Canal
# To evaluate the toxicity of the compounds of the present invention to the alimentary canal, the cytotoxicity to Caco 2, which is a human originated small intestine epithelial cell line, was tested by referring to the method of Bestwick C S et al. [Biochimica et Biophysica Acta 1474: 47-55, 1999].
# That is, Caco 2 cells (purchased from ATCC) were inoculated on a 96-well plate such that there were 10,000 cells/well [MEM-E medium, 10% FBS (Fetal Bovine Serum), 1% NEAA (Non Essential Amino Acid) solution, (both manufactured by GIBCO PHARMACEUTICAL COMPANY)]. After culturing for 48 hours, the test compounds were diluted with the culture medium and added to the respective wells. After 2 hours, 50 μl of the culture broth was collected and the LDH activity in the collected culture broth was measured by using an LDH activity measuring kit (CytoTox 96 Non-Radioactive Cytotoxicity Assay, manufactured by PROMEGA CORPORATION). Relative activities were calculated assuming the LDH activity as 100% when the Caco 2 cells were treated with the cytolytic agent and the obtained relative activities were taken as cytotoxicities to Caco 2 cell.
# [4] = 0.1 mg/kg oral with cholic acid 200 mg/kg, HCO-60 0.1%
# [5] = 0.3 mg/kg oral with cholic acid 200 mg/kg, HCO-60 0.1%
SMILES,IC50 [2],"Rate of decrease (%) of bile acid [1, 4]",Toxicity (%) to Caco 2 ([3]; 3 μM),Toxicity (%) to Caco 2 ([3]; 10 μM),Toxicity (%) to Caco 2 ([3]; 30 μM),also measured
CCCCC1(CCCC)CS(=O)(=O)c2ccc(N(C)C)cc2C(c2cccc(NC(=S)Nc3cccc(C[N+]45CCC(CC4)CC5)c3)c2)N1 (stereo not shown) [Example 4512],63 nM,37%,,,,
CCCCC1(CCCC)CS(=O)(=O)c2ccc(N(C)C)cc2C(c2cccc(NC(=S)Nc3cccc(C[N+]4(Cc5ccccc5)CCC(CCO)CC4)c3)c2)N1 (stereo not shown) [Example 4425],89 nM,22%,,,,
CCCCC1(CCCC)CS(=O)(=O)c2ccc(N(C)C)cc2C(c2cccc(NC(=S)Nc3ccc(CC[N+](C)(C)Cc4ccccc4)cc3)c2)N1 (stereo not shown) [Example 5043],62 nM,,<1%,<1%,<1%,"Rate of decrease (%) of bile acid [1, 5]: 39%"
CCCCC1(CCCC)CS(=O)(=O)c2ccc(N(C)C)cc2C(c2cccc(NC(=S)NCCC[N+](C)(C)Cc3ccccc3)c2)N1.[Br-] (stereo not shown) [Example 425],170 nM,,,,,"Rate of decrease (%) of bile acid ([1]; 0.1 mg/kg oral with cholic acid 200 mg/kg, Tween 20 0.05%): 21%"
CCCCC1(CCCC)CS(=O)(=O)c2ccc(N(C)C)cc2C(c2cccc(NC(=S)Nc3ccc(C[n+]4ccc(CC)cc4)cc3)c2)N1.[Br-] (stereo not shown) [Example 3710],52 nM,20%,<1%,<1%,<1%,
CCCCC1(CCCC)CS(=O)(=O)c2ccc(N(C)C)cc2C(c2cccc(NC(=S)Nc3cccc(C[N+](C)(C)Cc4ccccc4)c3)c2)N1.[Br-] (stereo not shown) [Example 4257],,30%,,,,
CCCCC1(CCCC)CS(=O)(=O)c2ccc(N(C)C)cc2C(c2cccc(NC(=S)Nc3ccc(CC[N+]45CCC(CC4)CC5)cc3)c2)N1 (stereo not shown) [Example 5298],76 nM,,<1%,<1%,<1%,"Rate of decrease (%) of bile acid [1, 5]: 40%"
CCCCC1(CCCC)CS(=O)(=O)c2ccc(N(C)C)cc2C(c2cccc(NC(=S)NCCCC[N+](C)(C)Cc3ccccc3)c2)N1.[Br-] (stereo not shown) [Example 801],,33%,,,,
CCCCC1(CCCC)CS(=O)(=O)c2ccc(N(C)C)cc2C(c2cccc(NC(=S)Nc3ccc(C[n+]4ccc(C#N)cc4)cc3)c2)N1.[Br-] (stereo not shown) [Example 3753],,,,,,"Rate of decrease (%) of bile acid [1, 5]: 8.5%"
CCCCCC1(CCCCC)CS(=O)(=O)c2ccc(N(C)C)cc2C(c2cccc(NC(=S)Nc3ccc(C[N+](C)(C)Cc4ccccc4)cc3)c2)N1.[Br-] (stereo not shown) [Example 5480],,,<1%,<1%,<1%,
CCCCC1(CCCC)CS(=O)(=O)c2ccc(N(C)C)cc2C(c2cccc(NC(=S)Nc3ccccc3C[N+]34CCC(CC3)CC4)c2)N1.[Br-] (stereo not shown) [Example 4905],,28%,,,,
"CCCCC1(CCCC)CS(=O)(=O)c2ccc(N(C)C)cc2C(c2ccc(NC(=S)Nc3ccc(C[N+](C)(C)Cc4ccccc4)cc3)cc2)N1.[Br-] (stereo not shown) [Example 5405, Benzyl-(4-{3-[4-(3,3-dibutyl-7-dimethylamino-1,1-dioxo-2,3,4,5-tetrahydro-1,4-benzothiazepin-5-yl)phenyl]thioureido}-benzyl)dimethylammonium bromide]",,16%,,,,
CCCCc1ccc[n+](Cc2ccc(NC(=S)Nc3cccc(C4NC(CCCC)(CCCC)CS(=O)(=O)c5ccc(N(C)C)cc54)c3)cc2)c1.[Br-] (stereo not shown) [Example 3723],25 nM,,<1%,<1%,<1%,
CCCCC1(CCCC)CS(=O)(=O)c2ccc(N(C)C)cc2C(c2cccc(NC(=S)Nc3ccc(C[N+]45CCC(CC4)C(O)C5)cc3)c2)N1 (stereo not shown) [Example 3697],69 nM,,,,,
CCCCC1(CCCC)CS(=O)(=O)c2ccc(N(C)C)cc2C(c2cccc(NC(=S)Nc3ccc(C[n+]4cccc(CC#N)c4)cc3)c2)N1.[Br-] (stereo not shown) [Example 3759],,,<1%,<1%,<1%,"Rate of decrease (%) of bile acid [1, 5]: 36%"
CCCCC1(CCCC)CS(=O)(=O)c2ccc(N(C)C)cc2C(c2cccc(NC(=S)Nc3cccc(C[N+](C)(C)C(C)c4cccc5ccccc45)c3)c2)N1 (stereo not shown) [Example 4605],79 nM,,,,,

# More lines, main results first:
IC50 [2],SMILES,"Rate of decrease (%) of bile acid [1, 4]",Toxicity (%) to Caco 2 ([3]; 3 μM),Toxicity (%) to Caco 2 ([3]; 10 μM),Toxicity (%) to Caco 2 ([3]; 30 μM),also measured
45 nM,CCCCC1(CCCC)CS(=O)(=O)c2ccc(N(C)C)cc2C(c2cccc(NC(=S)Nc3ccc(C[N+](C)(C)CCCC)cc3)c2)N1.[Br-] (stereo not shown) [Example 3409],28%,<1%,<1%,<1%,
49 nM,CCCCC1(CCCC)CS(=O)(=O)c2ccc(N(C)C)cc2C(c2cccc(NC(=S)Nc3ccc(C[n+]4ccc(C)cc4)cc3)c2)N1.[Br-] (stereo not shown) [Example 3709],,<1%,<1%,<1%,
93 nM,CCCCC1(CCCC)CS(=O)(=O)c2ccc(N(C)C)cc2C(c2cccc(NC(=S)NCCCCC[N+](C)(C)Cc3ccccc3)c2)N1.[Br-] (stereo not shown) [Example 1178],18%,,,,
54 nM,CCCCC1(CCCC)CS(=O)(=O)c2ccc(N(C)C)cc2C(c2cccc(NC(=S)Nc3ccc(C[N+]45CCN(CC4)CC5)cc3)c2)N1.[Br-] (stereo not shown) [Example 3705],,<1%,<1%,<1%,
57 nM,CCCCC1(CCCC)CS(=O)(=O)c2ccc(N(C)C)cc2C(c2cccc(NC(=S)Nc3ccc(C[n+]4cccc5cc(C)ccc54)cc3)c2)N1 (stereo not shown) [Example 3770],,,,,
87 nM,CCCCC1(CCCC)CS(=O)(=O)c2ccc(N(C)C)cc2C(c2cccc(NC(=S)Nc3cccc(C[n+]4cc(C)cc(C)c4)c3)c2)N1 (stereo not shown) [Example 4546],,,,,
72 nM,CCCCC1(CCCC)CS(=O)(=O)c2ccc(N(C)C)cc2C(c2cccc(NC(=S)Nc3cccc(C[n+]4cc(C)cc(-c5ccccc5)c4)c3)c2)N1 (stereo not shown) [Example 4547],,,,,
58 nM,CCCCC1(CCCC)CS(=O)(=O)c2ccc(N(C)C)cc2C(c2cccc(NC(=S)Nc3ccc(C[N+](C)(CCC)CCC)cc3)c2)N1 (stereo not shown) [Example 3426],,,,,
91 nM,CCCCC1(CCCC)CS(=O)(=O)c2ccc(N(C)C)cc2C(c2cccc(NC(=S)Nc3cccc(C[N+]4(Cc5ccccc5)CCC(CO)CC4)c3)c2)N1 (stereo not shown) [Example 4424],17%,,,,
91 nM,C=CC[N+](CC)(CC)Cc1cccc(NC(=S)Nc2cccc(C3NC(CCCC)(CCCC)CS(=O)(=O)c4ccc(N(C)C)cc43)c2)c1 (stereo not shown) [Example 4247],,,,,
